{"source": "PubChem BioAssay AID1259409", "about": "(Chemical Carcinogenesis Research Information System (CCRIS), 2018)", "origin": "cited, not measured here", "tested_on": "rodent chemically induced tumor inhibition, incidence and multiplicity", "experiment": "CCRIS tumor inhibitor studies", "conditions": "for outcome: Carcinogen: 7,12-Dimethylbenz[a]anthracene, Species: Mouse"}
{"smiles": "C/C(=C\\c1ccc(C(=O)O)cc1)c1ccc2c(c1)SCCC2(C)C", "values": [{"measurement": "tumour outcome (control, treated, inhibition, significance)", "setting": "Carcinogen: 7,12-DIMETHYLBENZ[A]ANTHRACENE, 57-97-6, Dose [Inhibitor]: 1.7 NMOL IN 0.2 ML ACETONE 1 HR PRIOR TO EACH PROMOTER DOSE FOR 12 WK (STUDY DURATION: 14 WK), Route [Inhibitor]: DERMAL, Species: MOUSE, Strain/Sex: SENCAR/FEMALE, Target Tissue: Type of Lesion: SKIN: PAPILLOMA, Dose [Carcinogen]: 200 NMOL IN 0.2 ML ACETONE ONCE, Promoter: 12-O-TETRADECANOYLPHORBOL-13-ACETATE, 16561-29-8", "value": "100%, 70%, 30%, not calculated"}, {"measurement": "tumour outcome (control, treated, inhibition, significance)", "setting": "Carcinogen: 7,12-DIMETHYLBENZ[A]ANTHRACENE, 57-97-6, Dose [Inhibitor]: 1.7 NMOL IN 0.2 ML ACETONE 1 HR PRIOR TO EACH PROMOTER DOSE FOR 20 WK (STUDY DURATION: 22 WK), Route [Inhibitor]: DERMAL, Species: MOUSE, Strain/Sex: CD-1/FEMALE, Target Tissue: Type of Lesion: SKIN: PAPILLOMA, Dose [Carcinogen]: 200 NMOL IN 0.2 ML ACETONE ONCE, Promoter: 12-O-TETRADECANOYLPHORBOL-13-ACETATE, 16561-29-8", "value": "94%, 67%, 29%, not calculated"}, {"measurement": "tumour outcome (control, treated, inhibition, significance)", "setting": "Carcinogen: 7,12-DIMETHYLBENZ[A]ANTHRACENE, 57-97-6, Dose [Inhibitor]: 17 NMOL IN 0.2 ML ACETONE 1 HR PRIOR TO EACH PROMOTER DOSE FOR 12 WK (STUDY DURATION: 14 WK), Route [Inhibitor]: DERMAL, Species: MOUSE, Strain/Sex: SENCAR/FEMALE, Target Tissue: Type of Lesion: SKIN: PAPILLOMA, Dose [Carcinogen]: 200 NMOL IN 0.2 ML ACETONE ONCE, Promoter: 12-O-TETRADECANOYLPHORBOL-13-ACETATE, 16561-29-8", "value": "100%, 72%, 28%, not calculated"}, {"measurement": "tumour outcome (control, treated, inhibition, significance)", "setting": "Carcinogen: 7,12-DIMETHYLBENZ[A]ANTHRACENE, 57-97-6, Dose [Inhibitor]: 17 NMOL IN 0.2 ML ACETONE 1 HR PRIOR TO EACH PROMOTER DOSE FOR 20 WK (STUDY DURATION: 22 WK), Route [Inhibitor]: DERMAL, Species: MOUSE, Strain/Sex: CD-1/FEMALE, Target Tissue: Type of Lesion: SKIN: PAPILLOMA, Dose [Carcinogen]: 200 NMOL IN 0.2 ML ACETONE ONCE, Promoter: 12-O-TETRADECANOYLPHORBOL-13-ACETATE, 16561-29-8", "value": "94%, 33%, 65%, not calculated"}, {"measurement": "tumour outcome (control, treated, inhibition, significance)", "setting": "Carcinogen: 7,12-DIMETHYLBENZ[A]ANTHRACENE, 57-97-6, Dose [Inhibitor]: 170 NMOL IN 0.2 ML ACETONE 1 HR PRIOR TO EACH PROMOTER DOSE FOR 12 WK (STUDY DURATION: 14 WK), Route [Inhibitor]: DERMAL, Species: MOUSE, Strain/Sex: SENCAR/FEMALE, Target Tissue: Type of Lesion: SKIN: PAPILLOMA, Dose [Carcinogen]: 200 NMOL IN 0.2 ML ACETONE ONCE, Promoter: 12-O-TETRADECANOYLPHORBOL-13-ACETATE, 16561-29-8", "value": "100%, 0%, 100%, not calculated"}, {"measurement": "tumour outcome (control, treated, inhibition, significance)", "setting": "Carcinogen: 7,12-DIMETHYLBENZ[A]ANTHRACENE, 57-97-6, Dose [Inhibitor]: 170 NMOL IN 0.2 ML ACETONE 1 HR PRIOR TO EACH PROMOTER DOSE FOR 20 WK (STUDY DURATION: 22 WK), Route [Inhibitor]: DERMAL, Species: MOUSE, Strain/Sex: CD-1/FEMALE, Target Tissue: Type of Lesion: SKIN: PAPILLOMA, Dose [Carcinogen]: 200 NMOL IN 0.2 ML ACETONE ONCE, Promoter: 12-O-TETRADECANOYLPHORBOL-13-ACETATE, 16561-29-8", "value": "94%, 0%, 100%, not calculated"}]}
{"smiles": "O=C(CC(=O)c1ccccc1)c1ccccc1", "values": [{"measurement": "tumour outcome (control, treated, inhibition, significance)", "setting": "Carcinogen: 7,12-DIMETHYLBENZ[A]ANTHRACENE, 57-97-6, Dose [Inhibitor]: 0, 1% IN DIET FOR 22 WK BEGINNING 2 WK PRIOR TO CARCINOGEN DOSE (STUDY DURATION: 22 WK), Route [Inhibitor]: ORAL, Species: MOUSE, Strain/Sex: SENCAR/FEMALE, Target Tissue: Type of Lesion: LYMPHATIC SYSTEM: LYMPHOMA OR LEUKEMIA, Dose [Carcinogen]: 1 MG IN 0.1 ML CORN OIL 1/WK FOR 5 WK, Promoter: NONE USED", "value": "45%, 0%, 100%, p<0.05"}, {"measurement": "tumour outcome (control, treated, inhibition, significance)", "setting": "Carcinogen: 7,12-DIMETHYLBENZ[A]ANTHRACENE, 57-97-6, Dose [Inhibitor]: 0, 1% IN DIET FOR 22 WK BEGINNING 2 WK PRIOR TO CARCINOGEN DOSE (STUDY DURATION: 22WK), Route [Inhibitor]: ORAL, Species: MOUSE, Strain/Sex: SENCAR/FEMALE, Target Tissue: Type of Lesion: MAMMARY GLAND: TUMOR, Dose [Carcinogen]: 1 MG IN 0.1 ML CORN OIL 1/WK FOR 5 WK, Promoter: NONE USED", "value": "68%, 2%, 97%, p<0.05"}, {"measurement": "tumour outcome (control, treated, inhibition, significance)", "setting": "Carcinogen: 7,12-DIMETHYLBENZ[A]ANTHRACENE, 57-97-6, Dose [Inhibitor]: 0, 1% IN DIET FOR 22 WK BEGINNING 2 WK PRIOR TO CARCINOGEN DOSE (STUDY DURATION: 22WK), Route [Inhibitor]: ORAL, Species: MOUSE, Strain/Sex: SENCAR/FEMALE, Target Tissue: Type of Lesion: OVARY:TUMOR, Dose [Carcinogen]: 1 MG IN 0.1 ML CORN OIL 1/WK FOR 5 WK, Promoter: NONE USED", "value": "20%, 0%, 100%, p<0.05"}, {"measurement": "outcome", "setting": "57-97-6, Dose [Inhibitor]: 0, 10 umol 3x/wk for 10 wk, Route [Inhibitor]: Dermal, Strain/Sex: CD-1/Female, Target Tissue: Type of Lesion: Skin: tumor, Dose [Carcinogen]: 200 nmol in 200 ul acetone, once, study duration 11 wk, Promoter: Mirex, 2385-85-5", "value": "37%, 15%, not significant"}, {"measurement": "outcome", "setting": "57-97-6, Dose [Inhibitor]: 0, 10 umol 3x/wk for 14 wk, Route [Inhibitor]: Dermal, Strain/Sex: CD-1/Female, Target Tissue: Type of Lesion: Skin: tumor, Dose [Carcinogen]: 200 nmol in 200 ul acetone, once, study duration 15 wk, Promoter: Mirex, 2385-85-5", "value": "60%, 40%, not significant"}, {"measurement": "outcome", "setting": "57-97-6, Dose [Inhibitor]: 0, 10 umol 3x/wk for 18 wk, Route [Inhibitor]: Dermal, Strain/Sex: CD-1/Female, Target Tissue: Type of Lesion: Skin: tumor, Dose [Carcinogen]: 200 nmol in 200 ul acetone, once, study duration 19 wk, Promoter: Mirex, 2385-85-5", "value": "80%, 70%, not significant"}, {"measurement": "outcome", "setting": "57-97-6, Dose [Inhibitor]: 0, 1% in diet for 22 wk beginning 2 wk prior to carcinogen dose (study duration: 22wk), Route [Inhibitor]: Oral, Strain/Sex: Sencar/Female, Target Tissue: Type of Lesion: Mammary Gland: Tumor, Dose [Carcinogen]: 1 mg in 0.1 ml corn oil 1/wk for 5 wk, Promoter: None", "value": "3%, 0%, 100% at 3 wk; 38%, 0%, 100% at 9 wk; 55%, 0% at 13 wk; 68%, 3%, 96% at 2"}]}
{"smiles": "O=C(O)c1cc(O)c(O)c(O)c1", "values": [{"measurement": "tumour outcome (control, treated, inhibition, significance)", "setting": "Carcinogen: 7,12-DIMETHYLBENZ[A]ANTHRACENE, 57-97-6, Dose [Inhibitor]: 0, 12 MG 2/WK FOR 30 WK APPLIED 20 MIN PRIOR TO EACH PROMOTER DOSE (STUDY DURATION: 32 WK), Route [Inhibitor]: DERMAL, Species: MOUSE, Strain/Sex: SENCAR/FEMALE, Target Tissue: Type of Lesion: SKIN: PAPILLOMA, Dose [Carcinogen]: 25 NMOL ONCE, Promoter: M-CHLOROPEROXYBENZOIC ACID, 937-14-4", "value": "39%, 3%, 92%, not calculated"}, {"measurement": "tumour outcome (control, treated, inhibition, significance)", "setting": "Carcinogen: 7,12-DIMETHYLBENZ[A]ANTHRACENE, 57-97-6, Dose [Inhibitor]: 0, 20 UMOL IN 0.4 ML ACETONE 20 MIN PRIOR TO EACH PROMOTER DOSE (STUDY DURATION: 47 WK), Route [Inhibitor]: DERMAL, Species: MOUSE, Strain/Sex: CF-1/FEMALE, Target Tissue: Type of Lesion: SKIN: CARCINOMA, Dose [Carcinogen]: 100 NMOL IN 0.2 ML ACETONE ONCE", "value": "67%, 28%, 58%, p<0.005"}, {"measurement": "tumour outcome (control, treated, inhibition, significance)", "setting": "Carcinogen: 7,12-DIMETHYLBENZ[A]ANTHRACENE, 57-97-6, Dose [Inhibitor]: 0, 20 UMOL IN 0.4 ML ACETONE 20 MIN PRIOR TO EACH PROMOTER DOSE (STUDY DURATION: 47 WK), Route [Inhibitor]: DERMAL, Species: MOUSE, Strain/Sex: CF-1/FEMALE, Target Tissue: Type of Lesion: SKIN: PAPILLOMA, Dose [Carcinogen]: 100 NMOL IN 0.2 ML ACETONE ONCE", "value": "94%, 80%, 15%, not calculated"}, {"measurement": "tumour outcome (control, treated, inhibition, significance)", "setting": "Carcinogen: BENZO[A]PYRENE, 50-32-8, Dose [Inhibitor]: 1% AQUEOUS SOLUTION 3/WK FOR A TOTAL OF 80 APPLICATIONS BEGINNING POST CARCINOGEN DOSE (STUDY DURATION: 567-580 D), Route [Inhibitor]: DERMAL, Species: MOUSE, Strain/Sex: CD-1/MALE, FEMALE, Target Tissue: Type of Lesion: SKIN: TUMOR, Dose [Carcinogen]: 0.53-0.6 MG ONCE, Promoter: NONE USED", "value": "15/50 (30%), 15/50 (30%), 0%, not significant"}]}
{"smiles": "CCCCC(O)CCC(=O)c1ccccc1", "note": "(centres undefined)", "values": [{"measurement": "tumour outcome (control, treated, inhibition, significance)", "setting": "Carcinogen: 4-(METHYLNITROSAMINO)-1-(3-PYRIDYL)-1-BUTANONE, 64091-91-4, Dose [Inhibitor]: 0, 25 UMOL IN 0.1 ML CORN OIL ONCE 2 HR PRIOR TO CARCINOGEN DOSE (STUDY DURATION: 16 WK), Route [Inhibitor]: GAVAGE, Species: MOUSE, Strain/Sex: STRAIN-A/FEMALE, Target Tissue: Type of Lesion: LUNG: TUMOR, Dose [Carcinogen]: 10 UMOL IN 0.1 ML SALINE ONCE, Promoter: NONE USED", "value": "100%, 100%, 0%, not significant"}]}
{"smiles": "CC(N)C(=O)NCC(=O)NC1CSSCC(C(=O)O)NC(=O)C(CO)NC(=O)C(C(C)O)NC(=O)C(Cc2ccccc2)NC(=O)C(C(C)O)NC(=O)C(CCCCN)NC(=O)C(Cc2c[nH]c3ccccc23)NC(=O)C(Cc2ccccc2)NC(=O)C(Cc2ccccc2)NC(=O)C(CC(N)=O)NC(=O)C(CCCCN)NC1=O", "note": "(centres undefined)", "values": [{"measurement": "tumour outcome (control, treated, inhibition, significance)", "setting": "Carcinogen: N-NITROSOMORPHOLINE, 59-89-2, Dose [Inhibitor]: 0, 200 UG/KG BW 1/2 D FOR DURATION OF STUDY (STUDY DURATION: 16 WK), Route [Inhibitor]: SUBCUTANEOUS, Species: RAT, Strain/Sex: SPRAGUE-DAWLEY/MALE, Target Tissue: Type of Lesion: LIVER: HEPATOCELLULAR CARCINOMA, Dose [Carcinogen]: 175 MG/L DRINKING WATER FOR 8 WK, Promoter: NONE USED", "value": "8/25 (32%), 4/25 (16%), 50%, not significant"}]}
